Experimental data published in patent publication US20240118281A1, “ANTICANCER COMPOUNDS AND USES THEREOF” (University of Florida Research Foundation, Incorporated, priority 2021, published 2024).

Tests used:
AGR2 = target: T1, AGR2 (Homo sapiens, UniProt O95994); test: AGR2 dimer formation in stable cell lines, non-reducing immunoblot; format: cell-based; set-up: expressed in transfected cells; details: MDA-MB-468 stable cell lines, 5 μM, 24 h, FIG. 2F
T1 sequence (O95994 21-175): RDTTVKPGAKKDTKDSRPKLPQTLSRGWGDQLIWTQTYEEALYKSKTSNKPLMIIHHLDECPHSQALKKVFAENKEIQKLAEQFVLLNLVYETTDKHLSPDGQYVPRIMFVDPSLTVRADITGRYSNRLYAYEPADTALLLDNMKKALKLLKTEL
Protocol: (§1) To assess protein disulfide bond-mediated oligomerization, cells were treated with DDAs for 24 h in 10% FBS-DMEM. Cells were subsequently scraped directly into the media and pelleted by centrifugation. Cells were extracted directly into boiling 2×-SDS-Sample Buffer containing 100 mM NEM and boiled for 10 min. Samples were sonicated, followed by centrifugation for 20 min at room temperature. Samples were subsequently analyzed by SDS-PAGE and immunoblot.

DR4 = test: Disulfide bond-mediated oligomerization, non-reducing immunoblot; format: cell-based
Description: (§2) The BT20, BT474, BT549, MCF7, MDA-MB-231, MDA-MB-436, MDA-MB-468, HCC1143, HCC1500, HCC1569, HCC1937, HCC1954, Hs578t, and T47D cells lines were purchased from American Type Culture Collection (ATCC) (Manassas, VA). The HCI-001 cell line was derived from an ER-/PR-/HER2- patient-derived xenograft originally isolated from a patient as described previously (DeRose Y S, et al. Nat Med 2011; 17: 1514-1520). The HCI-001/LVM2 model was derived from the HCI-001 cell line by performing two rounds of selection for liver metastasis, as described previously (Wang M, et al. Cell Death Discovery 2019; 5: 153). Cell lines were grown in Dulbecco's Modified Eagle's Medium (GE Healthcare Life Sciences, Logan, UT) containing 10% fetal bovine serum (10% FBS—DMEM) in a humidified incubator with 5% CO2 at 37° C. Cell lysates were prepared as described previously (Law B K, et al. Mol Cell Biol. 2002; 22: 8184-8198). Immunoblot analysis was performed utilizing the following antibodies purchased from Cell Signaling Technology (Beverly, MA) [Akt, #4691; P-Akt[T308], #13038; ATF4, #11815; CHOP, #2895; Cleaved Caspase 8, #9496; DR4, #42533; DR5, #8074; EGFR, #4267; GRP78, #3177; HER3, #4754; PARP, #9532; PDIA1, #3501; XBP1s, #12782], from Santa Cruz Biotechnology (Santa Cruz, CA) [Actin, sc-47778; AGR2/3, sc-376653; AGR3, sc-390940; ERO1-a, sc-100805; and ERp44, sc-393687], or from Rockland Immunochemicals, Inc. (Limerick, PA), Streptavidin-Alkaline Phosphatase conjugated (SA-AP), S000-05.
as §1

EGFR = test: as above; format: cell-based; details: MDA-MB-468 cells, 24 h, FIG. 1E right
Description: as §2, §1

MDA-MB-468 cells = test: Cell viability (MTT) assay; format: cell-based; details: FIG. 1D
Protocol: MTT (3-(4,5-dimethylthiazol-2-yl)-2,5-diphenyltetrazolium bromide) (Biomatik, Wilmington, DE) assays were performed by plating 7,500 cells/well in 10% FBS/DMEM in a 96-well plate, followed by incubation at 37° C. for 24 h. Cells were then treated with vehicle or increasing concentrations of tcyDTDO, dMtcyDTDO, or dFtcyDTDO and incubated at 37° C. for 72 h. Cell media was subsequently removed from each well and MTT assays were initiated by incubating cells with 0.5 mg/ml MTT in PBS for 3 h, followed by removal of the MTT solution and addition of 100 µL of DMSO to each well for 30 min. Absorbance of the MTT formazan product was subsequently measured at 570 and 690 (reference) nm in a plate reader.

[1] = tested on: HER3, DR5, CHOP and XBP1s; test: Reducing immunoblot of DDA responses; format: cell-based; details: MDA-MB-468 cells
Description: The BT20, BT474, BT549, MCF7, MDA-MB-231, MDA-MB-436, MDA-MB-468, HCC1143, HCC1500, HCC1569, HCC1937, HCC1954, Hs578t, and T47D cells lines were purchased from American Type Culture Collection (ATCC) (Manassas, VA). The HCI-001 cell line was derived from an ER-/PR-/HER2- patient-derived xenograft originally isolated from a patient as described previously (DeRose Y S, et al. Nat Med 2011; 17: 1514-1520). The HCI-001/LVM2 model was derived from the HCI-001 cell line by performing two rounds of selection for liver metastasis, as described previously (Wang M, et al. Cell Death Discovery 2019; 5: 153). Cell lines were grown in Dulbecco's Modified Eagle's Medium (GE Healthcare Life Sciences, Logan, UT) containing 10% fetal bovine serum (10% FBS—DMEM) in a humidified incubator with 5% CO2 at 37° C. Cell lysates were prepared as described previously (Law B K, et al. Mol Cell Biol. 2002; 22: 8184-8198). […]

[2] = tested on: HER2+ BT474 xenograft tumors; test: BT474 xenograft tumor study, H&E staining of mammary fat pads/tumors; format: in vivo, mice; details: 20 mg/kg intraperitoneal, four consecutive days; vehicle tumors showed no necrosis
Protocol: Breast cancer liver metastasis was initiated in NOD-SCID-gamma (NSG) mice obtained from Jackson Laboratories (Bar Harbor, ME) by injecting 1×10^6 cancer cells into the #4 mammary fat pads as described previously (Wang M, et al. Cell Death Discovery 2019; 5: 153). Mice bearing HCI-001/LVM2 breast tumors were treated once daily for four consecutive days with 20 mg/kg tcyDTDO by oral gavage and livers were collected. Animals bearing HER2+ BT474 tumors were treated with the vehicle or 20 mg/kg dMtcyDTDO or dFtcyDTDO by intraperitoneal injection for four consecutive days. Tissue samples fixed in 4% paraformaldehyde/PBS and paraffin-embedded were sectioned and stained with hematoxylin and eosin (H&E) by the University of Florida Molecular Pathology Core (https://molecular.pathology.ufl.edu/).

CO[C@H]1C[C@@H]2CS(=O)(=O)SC[C@H]2C[C@@H]1OC [dMtcyDTDO, dimethoxy-tcyDTDO]
AGR2 dimer formation in cells with enforced AGR2 expression (AGR2): blocked dimer formation by wild type AGR2 | Levels and oligomerization of DR4, densitometry (DR4; 0, 1.25, 2.5, 5 uM, FIG. 1F): increases DR4 oligomerization without affecting overall DR4 levels | Concentration at which disulfide-mediated oligomerization of DR4 was detected (DR4; MDA-MB-468 cells, 24 h, FIG. 1E right): 625 nM | DR4/5 oligomerization at the same concentration (DR4) (DR4; MDA-MB-468 cells, 24 h, compared with tcyDTDO, FIG. 1E left): more DR4/5 oligomerization | Concentration at which disulfide-mediated oligomerization of EGFR was detected (EGFR): 625 nM | Potency in cell viability assays relative to tcyDTDO (MDA-MB-468 cells): approximately two-fold greater potency than tcyDTDO | Potency in induction of HER3 downregulation, DR5 upregulation and ERS (CHOP, XBP1s) ([1]; 24 h, reducing conditions, FIG. 9B): more potent than tcyDTDO | Onset of these responses (time-course) ([1]; FIG. 9C): as early as four hours after treatment | Tumors in mammary fat pads, H&E histology [2]: tumors that had undergone coagulation necrosis
